The values that follow come from US6645918B1, “N-([1,2,4]triazoloazinyl)thiophenesulfonamide compounds and their use as herbicides” (Dow AgroSciences LLC, priority 2000, dated 2003).

Format in all cases: in vivo
Test [1] concerns blackgrass (Alopecurus myosuroides). The experiment in a line: Postemergence herbicidal activity, blackgrass. As to conditions: foliar spray, visual after 2 weeks, 0 no injury, 100 complete kill. The method, then:
(§1) Seeds of the desired test plant species were planted in Grace-Sierra MetroMix® 306 planting mixture, which typically has a pH of 6.0 to 6.8 and an organic matter content of about 30 percent, in plastic pots with a surface area of 64 square centimeters. When required to ensure good germination and healthy plants, a fungicide treatment and/or other chemical or physical treatment was applied. The plants were grown for 7-21 days in a greenhouse with an approximately 15 hr photoperiod which was maintained at about 23-29° C. during the day and 22-28° C. during the night. Nutrients and water were added on a regular basis and supplemental lighting was provided with overhead metal halide 1000 Watt lamps as necessary. The plants were employed for testing when they reached the first or second true leaf stage. A weighed amount of each test compound, determined by the highest rate to be tested, was placed in a 20 mL glass vial and was dissolved in 4 mL of a 97:3 v/v (volume/volume) mixture of acetone and dimethyl sulfoxide to obtain concentrated stock solutions. […] The concentrated stock solutions obtained were diluted with an aqueous mixture containing acetone, water, iso-propyl alcohol, dimethyl sulfoxide, Atplus 411F crop oil concentrate, and Triton X-155 surfactant (methylenebisdiamyl phenoxy polyethoxy ethanol) in a 48.5:39:10:1.5:1.0:0.02 v/v ratio to obtain spray solutions of known concentration. The solutions containing the highest concentration to be tested were prepared by diluting 2 mL aliquots of the stock solution with 13 mL of the mixture and lower concentrations were prepared by dilution of appropriate smaller portions of the stock solution. Approximately 1.5 mL aliquots of each solution of known concentration were sprayed evenly onto each of the test plant pots using a DeVilbiss atomizer driven by compressed air pressure of 2 to 4 psi (140 to 280 kilopascals) to obtain thorough coverage of each plant. Control plants were sprayed in the same manner with the aqueous mixture. In this test an application rate of 1 ppm results in the application of approximately 1 g/ha. The treated plants and control plants were placed in a greenhouse as described above and watered by sub-irrigation to prevent wash-off of the test compounds. After 2 weeks the condition of the test plants as compared with that of the untreated plants was determined visually and scored on a scale of 0 to 100 percent where 0 corresponds to no injury and 100 corresponds to complete kill.

Test [2] deals with lambsquarters (Chenopodium album). The experiment in a line: Postemergence herbicidal activity, lambsquarters. As to conditions: foliar spray, visual after 2 weeks, 0 no injury, 100 complete kill. The method, then: as §1
Test [3] deals with velvetleaf (Abutilion theophrasti). The experiment in a line: Preemergence herbicidal activity, velvetleaf. As to conditions: soil spray, visual after 3 weeks, 0 no injury, 100 complete kill or no germination. The method, then: (§2) The soil matrix was contained in plastic pots with a surface area of 161 square centimeters. When required to ensure good germination and healthy plants, a fungicide treatment and/or other chemical or physical treatment was applied. A weighed amount, determined by the highest rate to be tested, of each test compound was placed in a 20 mL glass vial and was dissolved in 8 mL of a 97:3 v/v (volume/volume) mixture of acetone and dimethyl sulfoxide to obtain concentrated stock solutions. […] The stock solutions obtained were diluted with a 99.9:0.1 mixture of water and Tween® 155 surfactant (ethoxylated sorbitan fatty acid ester) to obtain application solutions of known concentration. The solutions containing the highest concentration to be tested were prepared by diluting 4 mL aliquots of the stock solution with 8.5 mL of the mixture and lower concentrations were prepared by dilution of appropriate smaller portions of the stock solution. A 2.5 mL aliquot of each solution of known concentration was sprayed evenly onto the soil of each seeded pot using a Cornwall 5.0 mL glass syringe fitted with a TeeJet TN-3 hollow cone nozzle to obtain thorough coverage of the soil in each pot. Control pots were sprayed in the same manner with the aqueous mixture. A highest application rate of 4.48 kg/ha is achieved when 50 mg of test compound is employed. The treated pots and control pots were placed in a greenhouse with an approximately 15 hr photoperiod which was maintained at about 23-29° C. during the day and 22-28° C. during the night. Nutrients and water were added on a regular basis and supplemental lighting was provided with overhead metal halide 1000 Watt lamps as necessary. The water was added by top-irrigation. After 3 weeks the condition of the test plants that germinated and grew as compared with that of the untreated plants that germinated and grew was determined visually and scored on a scale of 0 to 100 percent where 0 corresponds to no injury and 100 corresponds to complete kill or no germination.

The test system of test [4] is Rox orange sorghum (Sorghum bicolor). The experiment in a line: Preemergence herbicidal activity, Rox orange sorghum. As to conditions: soil spray, visual after 3 weeks, 0 no injury, 100 complete kill or no germination. The method, then:
as §2

Test [5] relates to viola (Viola tricolor). The experiment in a line: Postemergence herbicidal activity, viola. The settings on record: foliar spray, visual after 2 weeks, 0 no injury, 100 complete kill. The method, then:
as §1

In test [6] the test system is lambsquarters (Chenopodium album). The experiment in a line: Preemergence herbicidal activity, lambsquarters. As to conditions: soil spray, visual after 3 weeks, 0 no injury, 100 complete kill or no germination. The method, then: as §2
For test [7], the system named is pigweed (Amaranthus retroflexus). The experiment in a line: Preemergence herbicidal activity, pigweed. The settings on record: soil spray, visual after 3 weeks, 0 no injury, 100 complete kill or no germination. The method, then: as §2
The subject of test [8] is cocklebur (Xanthium strumarium). The experiment in a line: Preemergence herbicidal activity, cocklebur. As to conditions: soil spray, visual after 3 weeks, 0 no injury, 100 complete kill or no germination. The procedure: as §2
Test [9] relates to wild oats (Avena fatua). The experiment in a line: Postemergence herbicidal activity, wild oats. The settings on record: foliar spray, visual after 2 weeks, 0 no injury, 100 complete kill. The procedure:
as §1

Test [10] deals with wild buckwheat (Polygonum convolvulus). The experiment in a line: Postemergence herbicidal activity, wild buckwheat. As to conditions: foliar spray, visual after 2 weeks, 0 no injury, 100 complete kill. The method, then: as §1
For test [11], the system named is Rox orange sorghum (Sorghum bicolor). The experiment in a line: Postemergence herbicidal activity, Rox orange sorghum. As to conditions: foliar spray, visual after 2 weeks, 0 no injury, 100 complete kill. The procedure:
as §1

Test [12] has as its system giant foxtail (Setaria faberi). The experiment in a line: Postemergence herbicidal activity, giant foxtail. As to conditions: foliar spray, visual after 2 weeks, 0 no injury, 100 complete kill. The method, then: as §1
In test [13] the test system is cocklebur (Xanthium strumarium). The experiment in a line: Postemergence herbicidal activity, cocklebur. As to conditions: foliar spray, visual after 2 weeks, 0 no injury, 100 complete kill. The procedure:
as §1

The test system of test [14] is morningglory (Ipomoea hederacea). The experiment in a line: Preemergence herbicidal activity, morningglory. As to conditions: soil spray, visual after 3 weeks, 0 no injury, 100 complete kill or no germination. The method, then:
as §2

For test [15], the system named is wild poinsettia (Euphorbia heterophylla). The experiment in a line: Preemergence herbicidal activity, wild poinsettia. As to conditions: soil spray, visual after 3 weeks, 0 no injury, 100 complete kill or no germination. The procedure: as §2
The subject of test [16] is wild oats (Avena fatua). The experiment in a line: Preemergence herbicidal activity, wild oats. As to conditions: soil spray, visual after 3 weeks, 0 no injury, 100 complete kill or no germination. The method, then:
as §2

The subject of test [17] is crabgrass (Digitaria sanguinalis). The experiment in a line: Preemergence herbicidal activity, crabgrass. The settings on record: soil spray, visual after 3 weeks, 0 no injury, 100 complete kill or no germination. The procedure: as §2
For test [18], the system named is chickweed (Stellaria media). The experiment in a line: Postemergence herbicidal activity, chickweed. The settings on record: foliar spray, visual after 2 weeks, 0 no injury, 100 complete kill. The procedure: as §1
Test [19] relates to velvetleaf (Abutilion theophrasti). The experiment in a line: Postemergence herbicidal activity, velvetleaf. As to conditions: foliar spray, visual after 2 weeks, 0 no injury, 100 complete kill. The procedure: as §1
Test [20] deals with barnyardgrass (Echinochloa crus-galli). The experiment in a line: Preemergence herbicidal activity, barnyardgrass. The settings on record: soil spray, visual after 3 weeks, 0 no injury, 100 complete kill or no germination. The procedure:
as §2

Test [21] concerns giant foxtail (Setaria faberi). The experiment in a line: Preemergence herbicidal activity, giant foxtail. As to conditions: soil spray, visual after 3 weeks, 0 no injury, 100 complete kill or no germination. The method, then:
as §2

The subject of test [22] is pigweed (Amaranthus retroflexus). The experiment in a line: Postemergence herbicidal activity, pigweed. The settings on record: foliar spray, visual after 2 weeks, 0 no injury, 100 complete kill. The procedure: as §1
Test [23] has as its system blackgrass (Alopecurus myosuroides). The experiment in a line: Preemergence herbicidal activity, blackgrass. As to conditions: soil spray, visual after 3 weeks, 0 no injury, 100 complete kill or no germination. The procedure:
as §2

In test [24] the test system is morningglory (Ipomoea hederacea). The experiment in a line: Postemergence herbicidal activity, morningglory. As to conditions: foliar spray, visual after 2 weeks, 0 no injury, 100 complete kill. The procedure:
as §1

Regarding `COc1cscc1S(=O)(=O)Nc1nc2c(Cl)cnc(OC)n2n1` [Compound 14], the “ALOMY postemergence injury score 0-100” value in test [1] (31.3 ppm) worked out at 80%. Besides, in [2] (31.3 ppm), the “CHEAL postemergence injury score 0-100” value came to 100%. Also, the “ABUTH preemergence injury score 0-100” value in [3] (35 g/Ha) is on record as 80%. The “SORBI preemergence injury score 0-100” value in [4] (35 g/Ha) turned out to be 100%. Moreover, the “VIOTR postemergence injury score 0-100” value in test [5] (31.3 ppm) was determined as 75%. The “CHEAL preemergence injury score 0-100” value in [6] (35 g/Ha) is 98%. The “AMARE preemergence injury score 0-100” value in [7] (35 g/Ha) is recorded as 80%. Further, the “XANST preemergence injury score 0-100” value in [8] (35 g/Ha) is 60%. In [9] (31.3 ppm), the “AVEFA postemergence injury score 0-100” value turned out to be 80%. In test [10] (31.3 ppm), the “POLCO postemergence injury score 0-100” value is on record as 95%. In addition, in test [11] (31.3 ppm), the “SORBI postemergence injury score 0-100” value is listed as 95%. Moreover, the “SETFA postemergence injury score 0-100” value in test [12] (31.3 ppm) is reported as 95%. Besides, in test [13] (31.3 ppm), the “XANST postemergence injury score 0-100” value was found to be 95%. In addition, the “IPOHE preemergence injury score 0-100” value in [14] (35 g/Ha) came out at 60%. For the same molecule, the “EPHHL preemergence injury score 0-100” value in test [15] (35 g/Ha) was 30%. Besides, the “AVEFA preemergence injury score 0-100” value in test [16] (35 g/Ha) was determined as 100%. The “DIGSA preemergence injury score 0-100” value in test [17] (35 g/Ha) is recorded as 100%. In test [18] (31.3 ppm), the “STEME postemergence injury score 0-100” value was 100%. Moreover, the “ABUTH postemergence injury score 0-100” value in test [19] (31.3 ppm) is on record as 90%. For the same molecule, the “ECHCG preemergence injury score 0-100” value in test [20] (35 g/Ha) is recorded as 98%. Further, the “SETFA preemergence injury score 0-100” value in [21] (35 g/Ha) was found to be 100%. The “AMARE postemergence injury score 0-100” value in [22] (31.3 ppm) worked out at 95%. Moreover, the “ALOMY preemergence injury score 0-100” value in test [23] (35 g/Ha) is reported as 100%. For the same molecule, the “IPOHE postemergence injury score 0-100” value in test [24] (31.3 ppm) came to 80%.

On to `COc1cc(OC)n2nc(NS(=O)(=O)c3c(OC)csc3C(F)(F)F)nc2n1` [Compound 25], for which, in test [1] (31 ppm), the “ALOMY postemergence injury score 0-100” value is given as 80%. Besides, in test [2] (31 ppm), the “CHEAL postemergence injury score 0-100” value is listed as 90%. The “ABUTH preemergence injury score 0-100” value in test [3] (17.5 g/Ha) was determined as 80%. For the same molecule, the “SORBI preemergence injury score 0-100” value in [4] (17.5 g/Ha) is reported as 90%. Further, in test [5] (31 ppm), the “VIOTR postemergence injury score 0-100” value is listed as 70%. The “CHEAL preemergence injury score 0-100” value in [6] (17.5 g/Ha) worked out at 90%. The “AMARE preemergence injury score 0-100” value in [7] (17.5 g/Ha) was 95%. The “XANST preemergence injury score 0-100” value in [8] (17.5 g/Ha) came out at 50%. Besides, the “AVEFA postemergence injury score 0-100” value in [9] (31 ppm) turned out to be 80%. For the same molecule, in test [10] (31 ppm), the “POLCO postemergence injury score 0-100” value was found to be 70%. The “SORBI postemergence injury score 0-100” value in [11] (31 ppm) stood at 95%. For the same molecule, the “SETFA postemergence injury score 0-100” value in test [12] (31 ppm) is 80%. In addition, the “XANST postemergence injury score 0-100” value in test [13] (31 ppm) amounted to 90%. Moreover, in test [14] (17.5 g/Ha), the “IPOHE preemergence injury score 0-100” value is 60%. Also, the “EPHHL preemergence injury score 0-100” value in test [15] (17.5 g/Ha) was 80%. Moreover, in [16] (17.5 g/Ha), the “AVEFA preemergence injury score 0-100” value stood at 80%. Further, the “DIGSA preemergence injury score 0-100” value in test [17] (17.5 g/Ha) came to 85%. The “STEME postemergence injury score 0-100” value in [18] (31 ppm) amounted to 60%. Moreover, the “ABUTH postemergence injury score 0-100” value in test [19] (31 ppm) was determined as 70%. Further, the “ECHCG preemergence injury score 0-100” value in test [20] (17.5 g/Ha) came out at 85%. Besides, the “SETFA preemergence injury score 0-100” value in test [21] (17.5 g/Ha) stood at 85%. For the same molecule, in test [22] (31 ppm), the “AMARE postemergence injury score 0-100” value was 90%. The “ALOMY preemergence injury score 0-100” value in [23] (17.5 g/Ha) turned out to be 95%. Also, the “IPOHE postemergence injury score 0-100” value in [24] (31 ppm) is 70%.
